As a reminder, the EC50 is the concentration that produces a half-maximal response. Low values mean an effect from little substance, high ones a need for much substance.

Molecules are shown by their SMILES.

The assay concerns the target T1, E. coli K12 PBP3 (Escherichia coli, UniProt P0AD68).
T1 construct: made in house
Kind of assay: biochemical. It counts as binding. The method in brief:
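Fluorescence polarization (ex 490/em 520 nm) competition of inhibitors against Bocillin-FL at 0.1 μM, read up to 60 min. Final PBP levels: E. coli PBP3 1.5 μM; A. baumannii PBP2 2.5 μM, PBP3 0.2 μM in Tris pH 8.0/NaCl/glycerol/Tween 20; N. gonorrhoeae PBP2 […] in Hepes pH 8.0/NaCl/glycerol. EC50 = concentration halving PBP-bound Bocillin-FL.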

T1 sequence (P0AD68 1-577): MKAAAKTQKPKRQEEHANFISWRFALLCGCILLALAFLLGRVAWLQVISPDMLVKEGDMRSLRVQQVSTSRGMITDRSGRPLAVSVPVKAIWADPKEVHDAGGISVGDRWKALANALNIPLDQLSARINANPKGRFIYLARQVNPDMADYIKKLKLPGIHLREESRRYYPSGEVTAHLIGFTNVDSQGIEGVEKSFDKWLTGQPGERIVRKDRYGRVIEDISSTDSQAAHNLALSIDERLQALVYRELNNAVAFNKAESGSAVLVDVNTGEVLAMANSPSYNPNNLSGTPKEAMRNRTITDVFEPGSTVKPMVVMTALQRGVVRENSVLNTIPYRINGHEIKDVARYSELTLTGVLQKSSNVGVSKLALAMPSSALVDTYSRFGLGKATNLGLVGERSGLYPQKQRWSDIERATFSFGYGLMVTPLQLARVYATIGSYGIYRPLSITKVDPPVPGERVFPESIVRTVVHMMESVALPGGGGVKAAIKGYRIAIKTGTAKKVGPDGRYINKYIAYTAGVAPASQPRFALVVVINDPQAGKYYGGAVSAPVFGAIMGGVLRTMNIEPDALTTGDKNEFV

Turning to `NCCCN1CCN(C(=O)N[C@H](C(=O)N[C@H]2Cc3cccc(C(=O)O)c3OB2O)c2cccc(NS(N)(=O)=O)c2)C(=O)C1=O` [Example 118, (R)-3-((S)-2-(4-(3-aminopropyl)-2,3-dioxopiperazine-1-carboxamido)-2-(3-(sulfamoylamino)phenyl)acetamido)-2-hydroxy-3,4-dihydro-2H-benzo[e][1,2]oxaborinine-8-carboxylic acid], the EC50 lay within 30 to 500 µM.

Take `NC1(CN2CCN(C(=O)NC(C(=O)N[C@H]3Cc4cccc(C(=O)O)c4OB3O)c3cccc(NS(N)(=O)=O)c3)C(=O)C2=O)CC1` (stereo partly drawn) [Example 120, (3R)-3-(2-(4-((1-aminocyclopropyl)methyl)-2,3-dioxopiperazine-1-carboxamido)-2-(3-(sulfamoylamino)phenyl)acetamido)-2-hydroxy-3,4-dihydro-2H-benzo[e][1,2]oxaborinine-8-carboxylic acid]: the EC50 was 30 to 500 µM.

In turn, `O=C(O)c1c(F)ccc2c1OB(O)[C@@H](NC(=O)C(NC(=O)N1CCN(CCF)C(=O)C1=O)c1c(F)cc(O)cc1F)C2` (stereo partly drawn) [Example 129, (3R)-3-(2-(2,6-difluoro-4-hydroxyphenyl)-2-(4-(2-fluoroethyl)-2,3-dioxopiperazine-1-carboxamido)acetamido)-7-fluoro-2-hydroxy-3,4-dihydro-2H-benzo[e][1,2]oxaborinine-8-carboxylic acid] registered an EC50 of under 30 µM.

In turn, `CCN1CCN(C(=O)NC(C(=O)N[C@H]2Cc3ccc(F)c(C(=O)O)c3OB2O)c2c(F)cc(O)cc2F)C(=O)C1=O` (stereo partly drawn) [Example 130, (3R)-3-(2-(2,6-difluoro-4-hydroxyphenyl)-2-(4-ethyl-2,3-dioxopiperazine-1-carboxamido)acetamido)-7-fluoro-2-hydroxy-3,4-dihydro-2H-benzo[e][1,2]oxaborinine-8-carboxylic acid] had an EC50 of under 30 µM.

For `CCN1CCN(C(=O)NC(C(=O)N[C@H]2Cc3cccc(C(=O)O)c3OB2O)c2cc(F)c(C(=O)O)cc2F)C(=O)C1=O` (stereo partly drawn) [Example 137, (3R)-3-(2-(4-carboxy-2,5-difluorophenyl)-2-(4-ethyl-2,3-dioxopiperazine-1-carboxamido)acetamido)-2-hydroxy-3,4-dihydro-2H-benzo[e][1,2]oxaborinine-8-carboxylic acid], the EC50 is under 30 µM.

Consider `CCN1CCN(C(=O)NC(C(=O)N[C@H]2Cc3cccc(C(=O)O)c3OB2O)c2cc(Cl)c(C(=O)O)cc2F)C(=O)C1=O` (stereo partly drawn) [Example 138, (3R)-3-(2-(4-carboxy-5-chloro-2-fluorophenyl)-2-(4-ethyl-2,3-dioxopiperazine-1-carboxamido)acetamido)-2-hydroxy-3,4-dihydro-2H-benzo[e][1,2]oxaborinine-8-carboxylic acid], for which the 50% effective concentration (EC50) is under 30 µM.

Molecule `CCN1CCN(C(=O)NC(C(=O)N[C@H]2Cc3cccc(C(=O)O)c3OB2O)c2cc(F)c(C(=O)O)c(F)c2)C(=O)C1=O` (stereo partly drawn) [Example 141, (3R)-3-(2-(4-carboxy-3,5-difluorophenyl)-2-(4-ethyl-2,3-dioxopiperazine-1-carboxamido)acetamido)-2-hydroxy-3,4-dihydro-2H-benzo[e][1,2]oxaborinine-8-carboxylic acid] returned an EC50 of under 30 µM.

Take `NCCN1CCN(C(=O)NC(C(=O)N[C@H]2Cc3cccc(C(=O)O)c3OB2O)c2ccc(C(=O)O)cc2O)C(=O)C1=O` (stereo partly drawn) [Example 142, (3R)-3-(2-(4-(2-aminoethyl)-2,3-dioxopiperazine-1-carboxamido)-2-(4-carboxy-2-hydroxyphenyl)acetamido)-2-hydroxy-3,4-dihydro-2H-benzo[e][1,2]oxaborinine-8-carboxylic acid]: the concentration giving a half-maximal response (EC50) fell in the range of 30 to 500 µM.

In turn, `CCN1CCN(C(=O)NC(C(=O)N[C@H]2Cc3cccc(C(=O)O)c3OB2O)c2ccc(C(=O)O)cc2F)C(=O)C1=O` (stereo partly drawn) [Example 145, (3R)-3-(2-(4-carboxy-2-fluorophenyl)-2-(4-ethyl-2,3-dioxopiperazine-1-carboxamido)acetamido)-2-hydroxy-3,4-dihydro-2H-benzo[e][1,2]oxaborinine-8-carboxylic acid] had an EC50 of under 30 µM.

For `CCN1CCN(C(=O)NC(C(=O)N[C@H]2Cc3cccc(C(=O)O)c3OB2O)c2c(Cl)cc(C(=O)O)cc2Cl)C(=O)C1=O` (stereo partly drawn) [Example 150, (3R)-3-(2-(4-carboxy-2,6-dichlorophenyl)-2-(4-ethyl-2,3-dioxopiperazine-1-carboxamido)acetamido)-2-hydroxy-3,4-dihydro-2H-benzo[e][1,2]oxaborinine-8-carboxylic acid], the concentration for a half-maximal effect (EC50) lay within 30 to 500 µM.

`NCCN1CCN(C(=O)NC(C(=O)N[C@H]2Cc3cccc(C(=O)O)c3OB2O)c2ccc(C(=O)O)c(Cl)c2)C(=O)C1=O` (stereo partly drawn) [Example 153, (3R)-3-(2-(4-(2-aminoethyl)-2,3-dioxopiperazine-1-carboxamido)-2-(4-carboxy-3-chlorophenyl)acetamido)-2-hydroxy-3,4-dihydro-2H-benzo[e][1,2]oxaborinine-8-carboxylic acid] registered a 50% effective concentration (EC50) of under 30 µM.

Molecule `O=C(O)c1cccc2c1OB(O)[C@@H](NC(=O)C(NC(=O)N1CCNC1=O)c1c(F)cc(O)cc1F)C2` (stereo partly drawn) [Example 156, (3R)-3-(2-(2,6-difluoro-4-hydroxyphenyl)-2-(2-oxoimidazolidine-1-carboxamido)acetamido)-2-hydroxy-3,4-dihydro-2H-benzo[e][1,2]oxaborinine-8-carboxylic acid] registered a concentration for a half-maximal effect (EC50) of under 30 µM.

`CCN1CCN(C(=O)NC(C(=O)N[C@H]2Cc3cccc(C(=O)O)c3OB2O)c2c(F)cc(C(=O)O)cc2F)C(=O)C1=O` (stereo partly drawn) [Example 157, (3R)-3-(2-(4-carboxy-2,6-difluorophenyl)-2-(4-ethyl-2,3-dioxopiperazine-1-carboxamido)acetamido)-2-hydroxy-3,4-dihydro-2H-benzo[e][1,2]oxaborinine-8-carboxylic acid] displayed an EC50 of under 30 µM.

The molecule `CCN1CCN(C(=O)NC(C(=O)N[C@H]2Cc3cccc(C(=O)O)c3OB2O)c2cc(F)c(O)c(F)c2)C(=O)C1=O` (stereo partly drawn) [Example 160, (3R)-3-(2-(3,5-difluoro-4-hydroxyphenyl)-2-(4-ethyl-2,3-dioxopiperazine-1-carboxamido)acetamido)-2-hydroxy-3,4-dihydro-2H-benzo[e][1,2]oxaborinine-8-carboxylic acid] returned a concentration giving a half-maximal response (EC50) of under 30 µM.

The molecule `NCCN1CCN(C(=O)NC(C(=O)N[C@H]2Cc3cccc(C(=O)O)c3OB2O)c2cc(F)c(O)c(Cl)c2)C(=O)C1=O` (stereo partly drawn) [Example 163, (3R)-3-(2-(4-(2-aminoethyl)-2,3-dioxopiperazine-1-carboxamido)-2-(3-chloro-5-fluoro-4-hydroxyphenyl)acetamido)-2-hydroxy-3,4-dihydro-2H-benzo[e][1,2]oxaborinine-8-carboxylic acid] yielded a concentration giving a half-maximal response (EC50) of under 30 µM.

`CCN1CCN(C(=O)NC(C(=O)N[C@H]2Cc3cccc(C(=O)O)c3OB2O)c2cc(F)c(O)c(Cl)c2)C(=O)C1=O` (stereo partly drawn) [Example 164, (3R)-3-(2-(3-chloro-5-fluoro-4-hydroxyphenyl)-2-(4-ethyl-2,3-dioxopiperazine-1-carboxamido)acetamido)-2-hydroxy-3,4-dihydro-2H-benzo[e][1,2]oxaborinine-8-carboxylic acid]: the EC50 was under 30 µM.

`CCN1CCN(C(=O)NC(C(=O)N[C@H]2Cc3cccc(C(=O)O)c3OB2O)c2cc(Cl)c(O)c(Cl)c2)C(=O)C1=O` (stereo partly drawn) [Example 171, (3R)-3-(2-(3,5-dichloro-4-hydroxyphenyl)-2-(4-ethyl-2,3-dioxopiperazine-1-carboxamido)acetamido)-2-hydroxy-3,4-dihydro-2H-benzo[e][1,2]oxaborinine-8-carboxylic acid] yielded an EC50 of under 30 µM.

The record behind these values is patent US20230114728A1 (Venatorx Pharmaceuticals, Inc., priority 2019, published 2023).
